Patent publication US9682969B2, “Phthalazinone compounds and methods for the treatment of cystic fibrosis” (FLATLEY DISCOVERY LAB, LLC, priority 2013, dated 2017)

Target: human F508del CFTR (Homo sapiens (Human), UniProt P13569, DEL508-508)
Experiment: CFTR-YFP High Throughput Assay (YFP flux assay, FRT cells)
Type: cell-based
Settings: FRT cells expressing human F508del CFTR and YFP
Description: This protocol is designed to selectively screen small molecule compounds for F508del CFTR corrector activities in the YFP (yellow fluorescent protein) flux assay. In this protocol, the cells are incubated with testing compounds for 24 hours, washed with PBS, stimulated with forskolin and a standard potentiator, and fluorescence in each plate well is measured kinetically read on a 384-well plate reader, such as the Hamamatsu FDSS-6000.
YFP fluorescence intensity values are acquired at high speed before and after iodide buffer is injected to the assay cells. Iodide enters the cells via active CFTR channels in the plasma membrane, and quenches the YFP fluorescence. The rate of fluorescence quenching is proportionate to the total CFTR activity in the cell membrane. F508del CFTR correctors increase the number of CFTR molecules in the testing cell plasma membrane, and thereby accelerate YFP quenching.
This method was initially developed for bench top plate readers (Galietta, J, Jayaraman, S and Verkman, A S. Cell-based assay for high-throughput quantitative screening of CFTR chloride transport agonists. Am. J. Physiol. Cell Physiol. (2001), 281: C173), and was adapted to the HTS format (Sui J, Cotard S, Andersen J, Zhu P, Staunton J, Lee M, Lin S. Optimization of a Yellow fluorescent protein-based iodide influx high-throughput screening assay for cystic fibrosis transmembrane conductance regulator (CFTR) modulators. Assay Drug Dev Technol. (2010), 8: 656-668).
Fisher Rat Thyroid (FRT) cells stably expressing both human F508del CFTR and a halide-sensitive yellow fluorescent protein (YFP-H148Q/I152L 25,22) (Galietta et al. Am. J. Physiol Cell Physiol 281(5), C1734, 2001) were cultured on plastic surface in Coon's modified Ham's F12 medium supplemented with FBS 10%, L-glutamine 2 mM, penicillin 100 U/ml, and streptomycin […]. G418 (0.75-1.0 mg/ml) and zeocin (3.2 ug/ml) were used for selection of FRT cells expressing F508del CFTR and YFP. For primary screening, FRT cells were plated into 384-well black wall, transparent bottom microtiter plates (Costar; Corning Inc.) at a cell density of 20,000-40,000 per well. Test compound was applied to the cells at varying concentrations ranging from 2 nM-40 μM in either a 2-fold or 3-fold dilution series. Cells were incubated in a cell culture incubator at 37° C. with 5% CO2 for 24-26 h. Assay plates were washed with DPBS media (Thermo, cat# SH30028.02) to remove unbound cells and compound. Stimulation media (25 μL) containing 20 μM Forskolin & 30 μM P3 [6-(Ethyl-phenyl-sulfonyl)-4-oxo-1,4-dihydro-quinoline-3-carboxylic acid 2-methoxy-benzylamide] in Hams F-12 coon's modified media was added to the plate wells and incubated at room temperature for 60-120 min. 25 μL of HEPES-PBS-I buffer (10 mM HEPES, 1 mM MgCl2, 3 mM KCl, 1 mM CaCl2, 150 mM NaI) was then added and fluorescence quench curves (Excitation 500 nm/Emission 540 nm; exposure 136 ms) were immediately recorded on an FDSS-6000 plate reader (Hamamatsu). Quench rates were derived from least squares fitting of the data as described by Sui et al (2010).
This protocol is designed to selectively screen small molecule compounds for F508del CFTR potentiator activities in the YFP (yellow fluorescent protein) flux assay. Such compounds act acutely to stimulate CFTR already expressed on the membrane surface. In this protocol, the cells are incubated at 27° C. for 24 hours to homogeneously boost F508del CFTR expression in the cell membrane (low temperature correction), washed with PBS, treated with test compound, and CFTR activity is stimulated with forskolin for 1-2 hr. Measurement of ion flux is initiated by addition of iodide-containing buffer, and YFP quenching is kinetically recorded using a 384-well plate reader, such as the Hamamatsu FDSS-6000.
YFP fluorescence intensity values are acquired at high speed over a 1 min time course before and after iodide buffer is injected to the assay cells. […]

Sequence of human F508del CFTR (P13569 other isoform, or with tags, fused parts or gaps del F508-F508): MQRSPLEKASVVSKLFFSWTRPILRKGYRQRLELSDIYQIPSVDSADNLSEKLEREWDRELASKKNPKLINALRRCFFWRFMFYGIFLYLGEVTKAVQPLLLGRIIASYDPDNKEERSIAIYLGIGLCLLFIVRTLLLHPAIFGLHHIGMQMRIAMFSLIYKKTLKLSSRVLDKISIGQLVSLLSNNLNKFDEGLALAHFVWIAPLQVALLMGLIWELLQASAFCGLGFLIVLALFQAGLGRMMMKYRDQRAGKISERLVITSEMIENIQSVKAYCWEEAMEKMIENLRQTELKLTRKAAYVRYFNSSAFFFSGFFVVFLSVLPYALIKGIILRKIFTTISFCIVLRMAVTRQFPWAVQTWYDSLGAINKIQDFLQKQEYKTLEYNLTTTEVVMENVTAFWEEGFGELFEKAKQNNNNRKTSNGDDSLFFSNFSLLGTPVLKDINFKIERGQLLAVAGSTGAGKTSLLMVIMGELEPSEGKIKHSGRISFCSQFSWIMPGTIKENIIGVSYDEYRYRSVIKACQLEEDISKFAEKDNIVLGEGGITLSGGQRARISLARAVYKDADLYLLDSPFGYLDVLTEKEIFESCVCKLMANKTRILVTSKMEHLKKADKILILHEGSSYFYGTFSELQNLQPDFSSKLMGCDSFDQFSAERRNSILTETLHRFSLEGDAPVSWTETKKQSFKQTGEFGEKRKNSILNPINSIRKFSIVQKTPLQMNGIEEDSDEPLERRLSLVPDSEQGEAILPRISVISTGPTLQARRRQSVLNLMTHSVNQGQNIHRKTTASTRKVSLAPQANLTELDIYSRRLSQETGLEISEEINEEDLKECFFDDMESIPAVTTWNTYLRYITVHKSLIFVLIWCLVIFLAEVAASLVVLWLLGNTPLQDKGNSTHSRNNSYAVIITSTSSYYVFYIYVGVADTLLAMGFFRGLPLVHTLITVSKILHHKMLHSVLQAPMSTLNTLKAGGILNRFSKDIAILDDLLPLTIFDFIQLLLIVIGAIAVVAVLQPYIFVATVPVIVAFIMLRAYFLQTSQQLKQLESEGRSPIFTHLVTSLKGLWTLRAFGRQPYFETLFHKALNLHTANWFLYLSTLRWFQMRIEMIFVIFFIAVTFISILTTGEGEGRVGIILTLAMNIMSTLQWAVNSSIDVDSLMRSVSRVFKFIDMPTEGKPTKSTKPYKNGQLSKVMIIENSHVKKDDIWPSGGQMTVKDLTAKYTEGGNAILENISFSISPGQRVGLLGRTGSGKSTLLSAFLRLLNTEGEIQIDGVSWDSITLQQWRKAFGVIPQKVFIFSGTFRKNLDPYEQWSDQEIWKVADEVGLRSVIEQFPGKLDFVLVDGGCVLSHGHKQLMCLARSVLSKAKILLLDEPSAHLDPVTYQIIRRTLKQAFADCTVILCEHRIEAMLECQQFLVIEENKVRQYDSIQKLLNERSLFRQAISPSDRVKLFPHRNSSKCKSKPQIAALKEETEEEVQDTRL

Compound: Cc1nc2ccc(N(C)C(=O)Cn3nc(-c4cccc(F)c4)c4ccc(OC5CCOCC5)cc4c3=O)cc2o1 [Example 27, 2-(4-(3-fluorophenyl)-1-oxo-7-((tetrahydro-2H-pyran-4-yl)oxy)phthalazin-2(1H)-yl)-N-methyl-N-(2-methylbenzo[d]oxazol-6-yl)acetamide]
- EC50: < 10 µM

Compound: Cc1nc2ccc(N(C)C(=O)Cn3nc(-c4cccc(F)c4)c4ccc(OC5CCCCC5)cc4c3=O)cc2o1 [Example 28, 2-(7-(cyclohexyloxy)-4-(3-fluorophenyl)-1-oxophthalazin-2(1H)-yl)-N-methyl-N-(2-methylbenzo[d]oxazol-6-yl)acetamide]
- EC50: < 10 µM

Compound: Cc1nc2ccc(N(C)C(=O)Cn3nc(-c4cccc(Cl)c4)c4ccc(OC5CCOCC5)cc4c3=O)cc2o1 [Example 29, 2-(4-(3-chlorophenyl)-1-oxo-7-((tetrahydro-2H-pyran-4-yl)oxy)phthalazin-2(1H)-yl)-N-methyl-N-(2-methylbenzo[d]oxazol-6-yl)acetamide]
- EC50: < 10 µM

Compound: CCOc1cc2c(=O)n(CC(=O)N(C)c3ccc4nc(C)oc4c3)nc(-c3cccc(F)c3)c2cc1Cl [Example 30, 2-(6-chloro-7-ethoxy-4-(3-fluorophenyl)-1-oxophthalazin-2(1H)-yl)-N-methyl-N-(2-methylbenzo[d]oxazol-6-yl)acetamide]
- EC50: < 10 µM

Compound: CCOc1cc2c(=O)n(CC(=O)N(C)c3ccc4nc(C)oc4c3)nc(-c3cccc(Cl)c3)c2cc1Cl [Example 31, 2-(6-chloro-4-(3-chlorophenyl)-7-ethoxy-1-oxophthalazin-2(1H)-yl)-N-methyl-N-(2-methylbenzo[d]oxazol-6-yl)acetamide]
- EC50: < 10 µM
